From PubChem BioAssay AID248 (DTP/NCI, 2004)
Several values for one entry are separate records, joined by “and”; a condition that tells them apart may be missing. Identical values can stand only once. Toxic doses and inconclusive results are not listed.

Tested on: L1210 leukemia ip in BDF1 mice, survival T/C
Assay: NCI In Vivo Anticancer Drug Screen. Data for tumor model L1210 Leukemia (intraperitoneal) in B6D2F1 (BDF1) mice
Conditions: endpoint: mean survival time, higher = longer survival
In short: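 In this screen, tumor-bearing mice given compound are compared to those given vehicle, and their survival values are reported as a treated-to-control quotient.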

[1] = dose: 100.0 mg/kg/injection, schedule: Q01DX001 (ip), vehicle: saline
[2] = dose: 200.0 mg/kg/injection, schedule: Q01DX001 (ip), vehicle: saline
[3] = dose: 400.0 mg/kg/injection, schedule: Q01DX001 (ip), vehicle: saline
[4] = dose: 100.0 mg/kg/injection, schedule: Q01DX009 (ip), vehicle: saline with Tween-80
[5] = dose: 100.0 mg/kg/injection, schedule: Q04DX003 (ip), vehicle: saline with Tween-80
[6] = dose: 200.0 mg/kg/injection, schedule: Q01DX009 (ip), vehicle: saline with Tween-80
[7] = dose: 200.0 mg/kg/injection, schedule: Q04DX003 (ip), vehicle: saline with Tween-80
[8] = dose: 100.0 mg/kg/injection, schedule: Q01DX001 (ip), vehicle: saline with Tween-80
[9] = dose: 200.0 mg/kg/injection, schedule: Q01DX001 (ip), vehicle: saline with Tween-80
[10] = dose: 400.0 mg/kg/injection, schedule: Q01DX001 (ip), vehicle: saline with Tween-80

**Q.** What does the source list for `O=S(=O)(CCCCl)N1CCOCC1`?
**A.** T/C [1]: 102 % of control; T/C (dose: 100.0 mg/kg/injection, schedule: Q04DX003 (ip), vehicle: saline): 97 % of control; T/C [2]: 106 % of control; T/C (dose: 200.0 mg/kg/injection, schedule: Q04DX003 (ip), vehicle: saline): 106 % of control; T/C [3]: 100 % of control; T/C (dose: 400.0 mg/kg/injection, schedule: Q04DX003 (ip), vehicle: saline): 95 % of control

**Q.** Which results are given for `Cc1ccc(N=C2CCCCC2Nc2ccc(C)cc2)cc1.[Cl][Zn][Cl]` (configuration not stated)?
**A.** T/C [1]: 98 % of control; T/C [2]: 101 % of control; T/C [3]: 104 % of control

**Q.** With `CC1(C)N=C(N)N=C(N)N1c1ccc(OCC(=O)N2CCOCC2)cc1` as the compound, how does the T/C (dose: 12.5 mg/kg/injection, schedule: Q01DX009 (ip), vehicle: saline) read?
**A.** Its T/C is 106 % of control.

**Q.** And the T/C (dose: 25.0 mg/kg/injection, schedule: Q01DX009 (ip), vehicle: saline)?
**A.** Its T/C is 102 % of control.

**Q.** What about the T/C (dose: 50.0 mg/kg/injection, schedule: Q01DX009 (ip), vehicle: saline) of the same compound?
**A.** The T/C was 95 % of control.

**Q.** What about the T/C (dose: 100.0 mg/kg/injection, schedule: Q01DX009 (ip), vehicle: saline) of the same compound?
**A.** The T/C was 96 % of control.

**Q.** What does the source list for `Oc1cc2ccccc2c2c1ccc1ccccc12`?
**A.** T/C [1]: 102 % of control; T/C [2]: 111 % of control; T/C [3]: 102 % of control

**Q.** What does the source list for `O=C(O)CCCCCCCCCCCCCCC(=O)O`?
**A.** T/C (dose: 100.0 mg/kg/injection, schedule: Q04DX002 (ip), vehicle: Klucel (hydroxypropylcellulose) (HPC)): 93 % of control and 97 % of control; T/C (dose: 200.0 mg/kg/injection, schedule: Q04DX002 (ip), vehicle: Klucel (hydroxypropylcellulose) (HPC)): 101 % of control; T/C (dose: 400.0 mg/kg/injection, schedule: Q04DX002 (ip), vehicle: Klucel (hydroxypropylcellulose) (HPC)): 93 % of control and 101 % of control

**Q.** `Cc1ccc2c(c1)C1(C)C=CC(=O)CC1O2` (configuration not stated) was tested. Which T/C (dose: 100.0 mg/kg/injection, schedule: Q04DX002 (ip), vehicle: saline with Tween-80) did it give?
**A.** The T/C was 106 % of control.

**Q.** What about the T/C (dose: 200.0 mg/kg/injection, schedule: Q04DX002 (ip), vehicle: saline with Tween-80) of the same compound?
**A.** The T/C was 110 % of control.

**Q.** And the T/C (dose: 400.0 mg/kg/injection, schedule: Q04DX002 (ip), vehicle: saline with Tween-80)?
**A.** Its T/C is 106 % of control.

**Q.** What does the source list for `Nc1ncnc2c1ncn2C1C=COC(CO)C1O` (configuration not stated)?
**A.** T/C (dose: 100.0 mg/kg/injection, schedule: Q01DX005 (ip), vehicle: saline): 100 % of control; T/C (dose: 200.0 mg/kg/injection, schedule: Q01DX005 (ip), vehicle: saline): 97 % of control

**Q.** How did the T/C [4] turn out when `O=C1C2(c3ccccc3)C(c3ccccc3)=C(c3ccccc3)C1(c1ccccc1)C1CC=CC12` (configuration not stated) was run?
**A.** Its T/C is 98 % of control.

**Q.** What about the T/C [5] of the same compound?
**A.** Its T/C is 96 % of control.

**Q.** And the T/C [6]?
**A.** The T/C was 100 % of control.

**Q.** What about the T/C [7] of the same compound?
**A.** The T/C was 104 % of control.

**Q.** What about the T/C (dose: 400.0 mg/kg/injection, schedule: Q04DX003 (ip), vehicle: saline with Tween-80) of the same compound?
**A.** The T/C was 96 % of control.

**Q.** For `CN(Cc1ccccc1)c1ccc(SC#N)cc1`, which T/C [1] is on record?
**A.** The T/C was 98 % of control.

**Q.** And the T/C [2]?
**A.** The T/C was 104 % of control.

**Q.** With `CCCCCCCCCCCCC(CCCCCCCCCCC)CCCCCCCCCCCC` as the compound, how does the T/C [8] read?
**A.** Its T/C is 97 % of control.

**Q.** What about the T/C [9] of the same compound?
**A.** Its T/C is 97 % of control.

**Q.** What about the T/C [10] of the same compound?
**A.** The T/C was 96 % of control.

**Q.** Which results are given for `CC(=O)NCc1cc2c3c(c1)CCCN3CCC2`?
**A.** T/C (dose: 50.0 mg/kg/injection, schedule: Q01DX009 (ip), vehicle: saline with Tween-80): 97 % of control; T/C [4]: 90 % of control; T/C [5]: 90 % of control; T/C [6]: 94 % of control; T/C [7]: 100 % of control

**Q.** Which results are given for `CC(=O)Nn1cnc2c(=S)nc[nH]c21`?
**A.** T/C (dose: 20.0 mg/kg/injection, schedule: Q01DX009 (ip), vehicle: saline with Tween-80): 108 % of control; T/C [8]: 101 % of control; T/C (dose: 177.0 mg/kg/injection, schedule: Q01DX001 (ip), vehicle: saline with Tween-80): 106 % of control; T/C [9]: 110 % of control; T/C [6]: 93 % of control; T/C (dose: 266.0 mg/kg/injection, schedule: Q01DX001 (ip), vehicle: saline with Tween-80): 154 % of control; T/C [10]: 118 % of control

**Q.** Which T/C (dose: 100.0 mg/kg/injection, schedule: Q01DX001 (sc), vehicle: olive oil, sesame oil, peanut oil) does the source give for `O=C1OCC/C1=C/CCCCC/C=C1\CCOC1=O` here?
**A.** Its T/C is 103 % of control.

**Q.** And the T/C (dose: 100.0 mg/kg/injection, schedule: Q04DX003 (sc), vehicle: olive oil, sesame oil, peanut oil)?
**A.** The T/C was 104 % of control.

**Q.** And the T/C (dose: 200.0 mg/kg/injection, schedule: Q01DX001 (sc), vehicle: olive oil, sesame oil, peanut oil)?
**A.** The T/C was 100 % of control.

**Q.** And the T/C (dose: 200.0 mg/kg/injection, schedule: Q04DX003 (sc), vehicle: olive oil, sesame oil, peanut oil)?
**A.** The T/C was 100 % of control.

**Q.** And the T/C (dose: 400.0 mg/kg/injection, schedule: Q01DX001 (sc), vehicle: olive oil, sesame oil, peanut oil)?
**A.** Its T/C is 96 % of control.

**Q.** And the T/C (dose: 400.0 mg/kg/injection, schedule: Q04DX003 (sc), vehicle: olive oil, sesame oil, peanut oil)?
**A.** Its T/C is 102 % of control.
